Measurements: patent US20260207648A1, “NOVEL SMALL MOLECULE KRAS INHIBITOR: DRUGGING UNDRUGGABLE TARGETS FOR CANCER THERAPEUTICS” (PILLAI UNIVERSAL LLC, priority 2022, published 2026)
Where two headings read alike, the source gives them in different places.

Assays:
[1] = tested on: p53, p21, p27, Cyclin B, cdc2, CDK2, CDK4, CDK6, Cyclin D1, Cyclin D3, pRb; experiment: Protein levels of cell cycle regulatory proteins; format: cell-based
Procedure: (§1) Flow cytometry analysis was performed to verify whether COMPOUND I induced apoptosis was related to cell cycle arrest. Cell cycle distribution in KRAS Mutated cell lines was quantified after treatment with different COMPOUND I concentrations. […] Therefore, it was attempted to determine whether COMPOUND I treatment also can influence the expression level of G1/S phase cell cycle regulatory proteins.

[2] = tested on: Control cell lines; experiment: Cell-cycle regulation and apoptosis in control cell lines; format: cell-based; conditions: control cell lines compared with KRAS Mutated cell lines
[3] = tested on: KRAS Mutated cell lines; experiment: Flow cytometry cell cycle distribution; format: cell-based
Procedure: as §1

[4] = tested on: MCF7, HT-29, HEP G2, A549; experiment: Cell viability (MTT assay) on human adenocarcinoma cell lines; format: cell-based; conditions: 48 hours, 250 to 0.97 nmol/L
Procedure: (§2) Several cell lines including human breast carcinoma (MCF7), colon adenocarcinoma (HT-29), Liver adenocarcinoma (HEP G2), Lung adenocarcinoma (A549) were treated with a range of COMPOUND I for 48 hours and the percentage of cell viability was determined by MTT assay. The average total viable cells were precisely calculated and anti-proliferative effects were determined. […] The drug were also tested on normal monkey Kidney epithelial cells.

[5] = tested on: apoptosis; experiment: DNA fragmentation assay / apoptosis quantitation; format: cell-based
Procedure: (§3) To confirm that COMPOUND I induced cell apoptosis, DNA fragmentation assay, was performed. […] Furthermore, the expression levels of proteins related to apoptosis and cell cycle progression by western blotting were examined. Cells were treated with COMPOUND I at different concentrations and total proteins were isolated. Beta-Actin was used as an internal control. […] The effect of drugs on the cleavage of procaspase 9 and procaspase 3 were examined. […] Caspase-3 is a key regulator of mitochondrial dependent and independent apoptotic pathways and activation of caspase-3 leads to cleavage of several substrates including PARP.

[6] = tested on: MEK, Erk1/2 and Akt; experiment: Inhibition of Ras downstream pathways (summary over readouts and cell lines); format: cell-based; conditions: Homo sapiens; PANC-1, MIA PaCa-2 and NCI-H1975; read-out: IC50 phosphorylation and activation of MEK, Erk1/2 and Akt
Procedure: (§4) The inhibitory effects of compounds COMPOUND I was tested on Ras-associated signal transduction pathways in three different human cell lines: the pancreatic cell-lines PANC-1 (K-Ras G12D mutant), MIA PaCa-2 (K-Ras G12C mutant), and the non-small cell lung cancer cell-line NCI-H1975 (KRas WT). FIG. 8 illustrate the inhibitory effects of COMPOUND I on phosphorylation and activation of MEK, Erk1/2 and Akt in those three cell lines. […] In contrast, the IC50s of compound COMPOUND I on the phosphorylation and activation of MEK and Erk1/2 were approximately 2 μM in PANC-1 and MIA PaCa-2 and 3 μM in NCI-H1975; and, of Akt, were approximately 5 μM in PANC-1 and MIA PaCa-2 and 5 μM in NCIH1975 (FIG. 8).

[7] = tested on: PANC-1, MIA PaCa-2, NCIH1975, A549 (K-Ras G12S mutant), NCI-H1299 (N-Ras Q61K mutant); experiment: Cellular proliferation of Ras wild type/mutant cell lines; format: cell-based; conditions: Homo sapiens; range over all tested cell lines
Procedure: The inhibition of compounds COMPOUND I on the cellular proliferation of […] cell lines were measured: The three cell lines in the signaling studies (PANC-1, MIA PaCa-2, NCIH1975), and the non-small cell lung cancer lines A549 (K-Ras G12S mutant) and NCI-H1299 (N-Ras Q61K mutant). FIG. 7 and IC50 values measured in these studies. […] Consistent with the notion that these compounds are pan-Ras superfamily inhibitors, it is reasonable to speculate that they can inhibit pathways downstream of several members of the Rassuperfamily.

[8] = tested on: MEK; experiment: Inhibition of Ras downstream pathways: MEK phosphorylation; format: cell-based; conditions: Homo sapiens, read-out: IC50 phosphorylation and activation of MEK
Procedure: as §4

[9] = tested on: Bcl-2, Bax, caspase-9, caspase-3, PARP; experiment: Western blotting of apoptosis-related proteins; format: cell-based; conditions: western blot
Procedure: as §3

[10] = tested on: Akt, mTOR, ERK; experiment: Akt/mTOR/ERK pathway activation; format: cell-based
Excerpt: In order to better understand the molecular basis of COMPOUND I induced cell cycle arrest and apoptosis, the expression of Akt and mTOR was investigated with various concentrations of COMPOUND I. Akt/mTOR is an important cell survival pathway and activated Akt inhibits apoptosis leading to cell survival. […] Additionally, it was examined whether COMPOUND I effect involved ERK signaling pathway and found the decreased activation of ERK.

[11] = tested on: Ras-GTP complex; experiment: Ras pull-down assay; format: cell-based, human; conditions: PANC-1, MIA PaCa-2 and NCIH1975; read-out: IC50 Ras-GTP complex formation
Procedure: As a follow up to the downstream assays, the ability of COMPOUND I was also measured to inhibit Ras-GTP complex formation in the three tested cell-lines (PANC-1, MIA PaCa-2 and NCIH1975) using a Ras pull-down assay. […] These values correlate well with the IC50 values obtained for the inhibition of MEK, Erk1/2 and Akt phosphorylation presented in FIGS. 2 and 3.

[12] = tested on: normal monkey Kidney epithelial cells; experiment: MTT cytotoxicity on normal cells; format: cell-based; conditions: normal monkey Kidney epithelial cells versus cancer cell lines
Procedure: as §2

[13] = tested on: Akt; experiment: Inhibition of Ras downstream pathways: Akt phosphorylation; format: cell-based; conditions: Homo sapiens, read-out: IC50 phosphorylation and activation of Akt
Procedure: as §4

[14] = tested on: Erk1/2; experiment: Inhibition of Ras downstream pathways: Erk1/2 phosphorylation; format: cell-based; conditions: Homo sapiens, read-out: IC50 phosphorylation and activation of Erk1/2
Procedure: as §4

Compound: COc1cc(C(C)=O)ccc1C(=O)COP(=O)(O)OP(=O)(O)OP(=O)(O)OCC1OC(n2cnc3c(=O)[nH]c(Nc4ccc(O)cc4)nc32)C(O)C1O (centres unmarked) [COMPOUND I]
- expression levels of p21, p27 and p53 ([1]; KRAS Mutated cell lines): Greater expression levels
- expression levels of CDK4, CDK6, Cyclin D1, Cyclin D3, pRb ([1]; dose-dependent): decreased significantly
- expression levels of Cyclin B, cdc2, CDK2 ([1]; dose-dependent): decreased significantly
- changes in cell-cycle regulation and apoptosis [2]: better protected
- cells showing G1/S phase arrest [3]: 23.98%
- number of cells in the G2/M phase [3]: 76.89%
- proliferation / cell viability [4]: inhibited the proliferation of all the cell lines in a dose-dependent manner
- DNA fragmentation (ladder pattern in agarose gels) ([5]; 48 hours, all concentrations tested): lead to DNA fragmentation
- apoptosis (quantitative analysis) ([5]; treated cells): significant increase of apoptosis
- IC50 [6]: 1000 to 3000 nM
- IC50 [7]: 450 to 1200 nM
- IC50 ([8]; MIA PaCa-2 (K-Ras G12C mutant)): ~2000 nM
- IC50 ([8]; NCI-H1975 (KRas WT)): ~3000 nM
- IC50 ([8]; PANC-1 (K-Ras G12D mutant)): ~2000 nM
- cleavage of PARP into 116 kDa and 84 kDa fragment [9]: induced the cleavage of PARP
- cleavages of procaspase 9 and procaspase 3 [9]: induced in a dose-dependent manner
- expression of Bcl-2 ([9]; dose dependent): down regulated
- expression of proapoptotic proteins Bax, caspase-9 and caspase-3 ([9]; dose dependent): induced expression
- total Akt and mTOR levels [10]: remained constant
- phosphorylation of Akt and mTOR ([10]; Serine 473 and Serine 2448, concentration-dependent): suppressed
- phosphorylation of ERK ([10]; Threonine 202 and Tyrosine 204): suppressed
- IC50 [11]: 2000 to 3000 nM
- sensitivity to induced cytotoxicity [12]: less sensitive
- IC50 ([13]; NCI-H1975, NCIH1975 (KRas WT)): ~5000 nM
- IC50 ([13]; MIA PaCa-2 (K-Ras G12C mutant)): ~5000 nM
- IC50 ([13]; PANC-1 (K-Ras G12D mutant)): ~5000 nM
- IC50 ([14]; MIA PaCa-2 (K-Ras G12C mutant)): ~2000 nM
- IC50 ([14]; NCI-H1975 (KRas WT)): ~3000 nM
- IC50 ([14]; PANC-1 (K-Ras G12D mutant)): ~2000 nM
